Measurements taken from patent publication US20170105979A1, “USE OF A TORASEMIDE-BASED VETERINARY COMPOSITION FOR LOW-DOSE ADMINISTERING” (VIRBAC, priority 2014, published 2017).
Where two headings read alike, the source gives them in different places. Each block holds one molecule with its values, some of them ahead of it.

Assays:
[1] = prolonged treatments of 14 days; torasemide 0.4 mg/kg/day; cited from earlier work
[2] = water consumption over 24 h in treated healthy dogs; format: in vivo, female Beagle dogs; conditions: FIG. 4
Method: (§1) Several criteria were evaluated in order to determine the efficacy of this dosage: • urine volume • water consumption • urinary sodium clearance • urinary potassium clearance • osmolar clearance • free-water clearance • urinary fraction excretion of sodium • urinary fraction excretion of potassium. […] The following measurements are carried out: • →urine: volume, pH, creatinine, osmolarity, sodium, potassium; • →plasma: sodium, potassium, urea, aldosterone.

[3] = single administration, healthy rats and dogs; cited from earlier work
[4] = cited from earlier work
[5] = 7 days, cited from earlier work; for clinical state of the disease: furosemide 5.13 mg/kg/day or torasemide 0.5 mg/kg/day, oral twice-daily
[6] = urine volume over 24 h in treated healthy dogs; format: in vivo, female Beagle dogs; conditions: FIG. 3
Method: as §1

[7] = urinary sodium clearance in healthy female Beagle dogs; format: in vivo
Method: Several criteria were evaluated in order to determine the efficacy of this dosage: • urine volume • water consumption • urinary sodium clearance • urinary potassium clearance • osmolar clearance • free-water clearance • urinary fraction excretion of sodium • urinary fraction excretion of potassium. […] The following measurements are carried out: • →urine: volume, pH, creatinine, osmolarity, sodium, potassium; • →plasma: sodium, potassium, urea, aldosterone. In this experiment, torasemide is tested at two single doses: 0.05 mg/kg or 0.5 mg/kg for a daily administration for three weeks. The continuous administration of diuretics causes a net deficit of sodium ions in the body, but renal compensation mechanisms adjust sodium excretion in line with sodium intake. This phenomenon is known as “diuretic braking”. […] In the experimental studies described above, carried out on healthy dogs, the modification of urinary sodium excretion by torasemide is evaluated by calculating urinary sodium clearance according to the following equation: Urinary sodium concentration×total urine volume/plasma sodium concentration

[8] = 0.2 mg/kg/day in the morning for 28 days, dogs with congestive heart failure; cited from earlier work
[9] = urinary fractional excretion of sodium (FENa) in healthy dogs; format: in vivo, female Beagle dogs; conditions: single (0.05 or 0.5 mg/kg) and repeated administrations for three weeks; FIGS. 9 and 10
Description: One of the solutions for making the link between clinical and experimental is the calculation of the fractional excretion of sodium. This value is the ratio of the urinary sodium clearance to the urinary creatinine clearance. It requires assaying the creatinine in the plasma and in the urine, and also assaying the sodium in the plasma and the urine also, which is entirely envisionable “in the field”. This fractional excretion of sodium (FENa) represents the percentage of sodium filtered by the kidney that is finally excreted in the urine. It is determined using equation 1 below: where Naurine and […] are the sodium concentrations in the urine and the plasma, respectively, and Creatinineplasma and Creatinineurine are the creatinine concentrations in the plasma and the urine, respectively. The fractional excretion of sodium is the sodium excretion divided by the glomerular filtration rate (GFR), the GFR being estimated by the creatinine clearance.

[10] = urinary potassium clearance in treated healthy dogs; format: in vivo, female Beagle dogs; conditions: first day of treatment, low-dose torasemide compared with other treatments; FIG. 5
Method: as §1, with “aldosterone. The excretion of potassium ions in the urine of the treated dogs was measured over a period of 24 hours, and is presented in FIG. 5.” for “aldosterone.”

[11] = plasma aldosterone concentration (innocuousness); format: in vivo, female Beagle dogs; conditions: FIG. 8
[12] = plasma creatinine and creatinine clearance (innocuousness); format: in vivo, female Beagle dogs; conditions: torasemide 0.05 mg/kg/day
Method: Other criteria were evaluated in order to determine the safety of this dosage: • plasma creatinine • creatinine clearance • plasma urea • plasma aldosterone. […] The following measurements are carried out: • →urine: volume, pH, creatinine, osmolarity, sodium, potassium; • →plasma: sodium, potassium, urea, aldosterone.

[13] = plasma urea concentration (innocuousness); format: in vivo, female Beagle dogs; conditions: FIG. 7
[14] = high dose of torasemide (0.5 mg/kg/day), D18 and D28
[15] = low dose of torasemide (0.05 mg/kg/day)

SMILES: NS(=O)(=O)c1cc(C(=O)O)c(NCc2ccco2)cc1Cl [furosemide]
diuretic resistance [1]: develop “diuretic resistance”
water consumption over a period of 24 h ([2]; furosemide 5 mg/kg/day, especially D18 and D28): clear increase
dose-effect relationship for diuretic effect and ion secretion [3]: relationship between the dose administered and the size of the diuretic effect and of the ion secretion
time after administration at which the diuretic effect decreases ([4]; furosemide): 6 h
time after administration at which the diuretic effect appears ([4]; torasemide 0.2 mg/kg): approximately 1 hours
clinical state of the disease [5]: maintain the disease in a stable state
urine volume ([6]; furosemide 5 mg/kg/day, from first day (D7), maintained over three weeks): clear increase

plasma aldosterone concentration [11, 14]: increase
increase in plasma aldosterone concentration [11, 15]: not observed
plasma creatinine concentration ([12]; whatever the day of the sample): no effect
creatinine clearance ([12]; FIG. 6): no effect
plasma urea concentration [13, 14]: increase
increase in plasma urea concentration [13, 15]: not observed
SMILES: Cc1cccc(Nc2ccncc2S(=O)(=O)NC(=O)NC(C)C)c1 [torasemide, N-[(isopropyl-amino)carbonyl]-4-[(3-methylphenyl)amino]pyridine-3-sulfonamide]
diuretic resistance [1]: this resistance does not occur
plasma creatinine concentrations [1]: increase in plasma creatinine concentrations
diuretic braking effect ([7]; dogs in good health, single dose of 0.5 mg/kg): occurs
net effect over the course of 24 hours on urinary sodium clearance ([7]; repeated administrations, high dose of torasemide 0.5 mg/kg/day, FIG. 2): no net effect
effect on urinary sodium clearance ([7]; repeated administrations, low dose of torasemide 0.05 mg/kg, D7, D18, D28, FIG. 2): effect that was clearly visible
overall effect on sodium clearance over the course of 24 hours ([7]; single dose, low dose 0.05 mg/kg compared with high dose 0.5 mg/kg, FIG. 1): higher than the overall effect of the high dose of torasemide (0.5 mg/kg)
potassium excretion in the urine [8]: increased
sodium excretion [8]: not increased
water consumption over a period of 24 h ([2]; torasemide 0.05 mg/kg/day): only a small change
water consumption over a period of 24 h ([2]; torasemide 0.5 mg/kg/day, especially D18 and D28): clear increase
dose-effect relationship for diuretic effect and ion secretion [3]: relationship between the dose administered and the size of the diuretic effect and of the ion secretion
fractional excretion of sodium [9]: in agreement with those obtained by directly measuring the urinary sodium clearance
effect on potassium ion excretion in the urine [10]: lower than with the other treatments
potassium excretion in the urine ([4]; sick dogs, after 7 days, compared with furosemide): less than that observed for the dogs treated with furosemide
persistence of the diuretic effect ([4]; torasemide 0.2 mg/kg): 12 h
clinical state of the disease [5]: maintain the disease in a stable state
diuretic effect compared with furosemide ([5]; torasemide 0.5 mg/kg/day vs furosemide 5.13 mg/kg/day): better diuretic effect
urine volume ([6]; torasemide 0.05 mg/kg/day, D7, D18, D28): do not show any change
urine volume ([6]; torasemide 0.5 mg/kg/day, from first day (D7), maintained over three weeks): clear increase
